Source: patent US20220324897A1, “CRYSTAL FORM OF SGLT INHIBITOR AND APPLICATION THEREOF” (SHANDONG DANHONG PHARMACEUTICAL CO., LTD., priority 2019, published 2022)

Columns and labels:
SD rats = test: Pharmacodynamic study in rats OGTT model; format: in vivo, rat; conditions: for OGTT Blood glucose levels AUC0-2 hr: SD rats, mean ± standard error
Experimental: SD rats, male, aged 7-8 weeks, purchased from Zhejiang Weitonglihua Experimental Animal Technology Co. Ltd. are maintained in a special pathogen-free environment, with 4 rats in a single ventilation cage. Beddings and water in all cages are sterilized prior to use. All animals can freely obtain a standard certified commercial laboratory diet.
After the animals are adapted to the environment for one week, they are fasted for 16 hours in a metabolic cage, and randomly divided into different groups according to fasting blood glucose and body weight. The animals are administered with a drug or solvent (2 mL/kg), followed by immediately administration of 50% glucose solution (2 g/kg, 4 mL/kg), 2 hours after the administration of glucose solution, the feed is recovered, and blood samples are collected at 0 min, 15 min, 30 min, 45 min, 60 min, and 120 min for blood glucose testing. All values are expressed as average values. Statistical analysis is carried out using Graphpad Prism 6 double factor variance analysis and evaluated with Tukey's multiple comparison tests. P values less than 0.05 are considered to have statistical significance.

[1] = Hygroscopicity study by dynamic vapor sorption (DVS); format: physicochemical; conditions: 25° C. and 80% RH
Experimental: Dynamic Vapor Sorption (DVS) Method of the Present Invention
Instrument Model: […] Advantage-1 dynamic vapor adsorber
Test conditions: Sample (10-30 mg) is placed in the DVS sample tray for testing.
Detailed DVS parameters are as follows:
Balance: dm/dt=0.002%/min (shortest: 10 min, longest: 180 min)
RH (%) test step range: 0-95-0
Hygroscopicity evaluation and classification are as follows:
SMS DVS Advantage Dynamic Vapor Sorption Intrinsic

[2] = Solid stability test of crystal form A; format: physicochemical
Experimental: Each part is placed at the bottom of a HPLC vial and spread into a thin layer. Samples placed in a constant temperature and constant humidity box at 60° C./75% RH and samples placed in a 92.5% RH dryer are sealed with a sealing film on the bottle mouth, and some small holes are made in the sealing film to ensure that the sample can be brought into full contact with the ambient air. Samples placed at 60° C., or under lights or shading conditions are tightly capped (wherein the samples under shading conditions are packaged with a tin foil paper).

[3] = Shading lights, test at the same time with the visible lights + ultraviolet lights group
[4] = Shading lights, test at the same time with the visible lights group
[5] = Visible lights + Ultraviolet lights, illuminance reaches 200 W · hrs/m^2
[6] = Visible lights, illuminance reaches 1.2E+06 Lux · hrs

SMILES: CCOc1ccc(Cc2cc([C@@H]3O[C@H](SC)[C@@H](O)[C@H](O)[C@H]3O)ccc2Cl)cc1 [Sotagliflozin, reference compound]
- OGTT Blood glucose levels AUC0-2 hr (SD rats; 3 mg/kg): 1050 mmol/L/min

SMILES: CCc1ccc([C@@H]2O[C@H](SC)[C@@H](O)[C@H](O)[C@H]2O)cc1Cc1ccc(C2=CCC(F)(F)CC2)cc1
- OGTT Blood glucose levels AUC0-2 hr (SD rats; 1 mg/kg): 1070 mmol/L/min
- OGTT Blood glucose levels AUC0-2 hr (SD rats; 3 mg/kg): 977 mmol/L/min
- OGTT Blood glucose levels AUC0-2 hr (SD rats; 10 mg/kg): 881 mmol/L/min
- Effect on blood glucose level, AUC0-2hr, conclusion (SD rats; rat OGTT, in 2 hours): effectively and significantly reduce the blood glucose level
- Hygroscopicity classification [1]: almost no hygroscopicity
- ΔW, weight gain caused by hygroscopicity [1]: 0.1483%
- Crystal form ([2]; 0 day): Crystal form A
- Purity (area %) ([2]; 0 day): 96.48 area %
- Crystal form ([2]; 60° C., 5 days): Crystal form A
- Purity (area %) ([2]; 60° C., 5 days): 96.38 area %
- Crystal form ([2]; 60° C., 10 days): Crystal form A
- Purity (area %) ([2]; 60° C., 10 days): 96.41 area %
- Crystal form ([2]; 60° C./75% RH, 1 months): Crystal form A
- Purity (area %) ([2]; 60° C./75% RH, 1 months): 96.31 area %
- Crystal form ([2]; 60° C./75% RH, 2 months): Crystal form A
- Purity (area %) ([2]; 60° C./75% RH, 2 months): 96.39 area %
- Crystal form ([2]; 60° C./75% RH, 3 months): Crystal form A
- Purity (area %) ([2]; 60° C./75% RH, 3 months): 96.37 area %
- Crystal form ([2]; 92.5% RH, 5 days): Crystal form A
- Purity (area %) ([2]; 92.5% RH, 5 days): 96.41 area %
- Crystal form ([2]; 92.5% RH, 10 days): Crystal form A
- Purity (area %) ([2]; 92.5% RH, 10 days): 96.47 area %
- Crystal form [2, 3]: Crystal form A
- Purity (area %) [2, 3]: 96.43 area %
- Crystal form [2, 4]: Crystal form A
- Purity (area %) [2, 4]: 96.44 area %
- Crystal form [2, 5]: Crystal form A
- Purity (area %) [2, 5]: 95.75 area %
- Crystal form [2, 6]: Crystal form A
- Purity (area %) [2, 6]: 96.29 area %
- Solid stability, conclusion ([2]; all tested conditions of Table 3): Conclusion: The crystal forms A of compound of formula (I) has good stability.
